One compound from patent US20030216479A1, “Novel compositions comprising 2,2-Bis (4-hydroxy-3-methylphenyl) heptane and uses thereof” (priority 2001, published 2003) can be followed below.

Converted amounts (≈) assume the structure as drawn.

The subject of one series is S. epidermidis. Kind of series: MIC antibacterial activity. The series is classed as cell-based. The settings on record: Staphylococcus epidermidis.
Another series has as its system S. pneumoniae. Kind of series: MIC antibacterial activity. The series is classed as cell-based. As to conditions: Streptococcus pneumoniae.
Another series concerns S. pyogenes. The series can be described thus: MIC antibacterial activity. The series is classed as cell-based. The settings on record: Streptococcus pyogenes.
Another series concerns E. faecalis. Kind of series: MIC antibacterial activity. The series is classed as cell-based. The settings on record: Enterococcus faecalis.
In the next series the test system is C. diphtheriae. The series can be described thus: MIC antibacterial activity. The settings on record: Corynebacterium diphtheriae. The series is classed as cell-based.
For the next series, the system named is M. smegmatis. Kind of series: MIC antibacterial activity. The series is classed as cell-based. As to conditions: Mycolicibacterium smegmatis.
The test system of the next series is M. catarrhalis. Kind of series: MIC antibacterial activity. As to conditions: Moraxella catarrhalis. The series is classed as cell-based.
Another series concerns H. influenzae. The series can be described thus: MIC antibacterial activity. The series is classed as cell-based. As to conditions: Haemophilus influenzae.
A further series has as its system H. pylori. Kind of series: MIC antibacterial activity. The series is classed as cell-based. The settings on record: Helicobacter pylori.
Series [1] concerns methicillin-sensitive Staphylococcus aureus. The series can be described thus: Wound healing model (FIG. 1). As to conditions: methicillin-susceptible Staphylococcus aureus; mice; topical twice daily from 24 h; sampled 72 h post-infection. The series is classed as in vivo. On the procedure:
(§1) FIG. 1. Efficacy of a composition comprising 2,2-Bis(4-hydroxy-3-methylphenyl)heptane in the wound healing model. A defined inoculum of approximately 10^5 CFU of methicillin-sensitive Staphylococcus aureus in 20 μl culture medium was pipetted into a wound approximately 1 cm^2 created by removal of the epidermis from the shaved backs of mice. After 24 hours, the composition comprising 2,2-Bis(4-hydroxy-3-methylphenyl)heptane, placebo control or positive control ointment was applied twice daily. Approximately, seventy two hours post-infection, the wound was sampled and appropriate dilutions plated on nutritive agars for determination of microbial burden. The number of colony forming units (CFU) of methicillin-sensitive Staphylococcus aureus per wound is shown.
(§2) The wound healing model, using methods generally known by those skilled in the art, is used to measure the efficacy of topically applied compounds in suitable vehicles against any bacteria, for example, Staphylococcus epidermis, Staphylococcus aureus, Streptococcus pyrogenes, Haemophilus influenzae, or mixtures thereof. By removing several epidermal layers by surgical procedure, a superficial wound of approximately 1 cm^2 was created. About 10 ^5 cfu/20 ul of culture medium of any bacteria, for example, S aureus, was applied to the wound. […]

Series [2] deals with methicillin-resistant Staphylococcus aureus. The series can be described thus: Wound healing model (FIG. 2). The series is classed as in vivo. The settings on record: mice, topical twice daily from 24 h, sampled 72 h post-infection. On the procedure:
as §1, with “2.” for “1.”, “methicillin-resistant” for “methicillin-sensitive”
as §2

Series [3] relates to Staphylococcus epidermidis. Kind of series: Wound healing model (FIG. 3). The series is classed as in vivo. As to conditions: mice, topical twice daily from 24 h, sampled 72 h post-infection. As to the method:
as §1, with “3.” for “1.”, “epidermis” for “aureus”
as §2

As usually defined, the melting point is the temperature of the solid-liquid transition. `CCCCCC(C)(c1ccc(O)c(C)c1)c1ccc(O)c(C)c1` [2,2-Bis(4-hydroxy-3-methylphenyl)heptane] came in with a melting point of 99 to 101 °C. Further, the MIC against S. epidermidis was 2 µg/mL (≈ 6.4 µM). The compound further had an MIC against S. pneumoniae of 6 µg/mL (≈ 19.2 µM). In the series on S. pyogenes, this compound displayed an MIC of 6 µg/mL (≈ 19.2 µM). In the series on E. faecalis, this compound yielded an MIC of 2 µg/mL (≈ 6.4 µM). In the series with C. diphtheriae, this compound registered an MIC of 2 µg/mL (≈ 6.4 µM). In addition, the MIC with M. smegmatis was 2 µg/mL (≈ 6.4 µM). In the series on M. catarrhalis, the MIC is 2 µg/mL (≈ 6.4 µM). This compound displayed an MIC with H. influenzae of 6 µg/mL (≈ 19.2 µM). This compound displayed an MIC against H. pylori of 16 µg/mL (≈ 51.2 µM). The “reducing the population levels of pathogenic bacteria (CFU per wound)” value (“reducing the population levels … (CFU per wound)” below) in series [1] is given as “efficacious”. For the same compound, the “reducing the population levels … (CFU per wound)” value in series [2] was “efficacious”. Further, the “reducing the population levels … (CFU per wound)” value in series [3] was “efficacious”.
